Laboratory results: US20010027209A1, “Method and composition for treating and preventing mycobacterium infections” (Sarawak Medichem Pharmaceuticals, Inc., priority 1998, published 2001)
Converted amounts (≈) assume the structure as drawn. “And” between values parts separate entries of the source, which are not always exact repeats. Identical values can stand only once. Like-named read-outs stand apart in the source and are kept apart here.

Experiments:
[1] = tested on: Mycobacterium tuberculosis H37Rv; experiment: in vitro primary screening assay in BACTEC 12B medium, BACTEC 460 radiometric system; assay type: cell-based; conditions: for MIC: M. tuberculosis H37Rv; for inhibition at 12.5 µg/mL: H37RV
Mtb = conditions: against Mtb, background section; cited from earlier work
M. tuberculosis H37Rv = experiment: actual minimum inhibitory concentration (MIC) at lower concentrations, BACTEC 460; assay type: cell-based; conditions: Mycobacterium tuberculosis, lowest concentration inhibiting 99% of the inoculum
[2] = table of Example 38, 12.5 μg/mL
[3] = Mycobacterium tuberculosis, concentration 12.5 μg/mL, BACTEC 12B medium, read-out: inhibition against Mtb H37Rv
[4] = Mycobacterium tuberculosis, table of Example 38, 12.5 μg/mL, read-out: % Inhibition
[5] = Mycobacterium tuberculosis, table of Example 38, read-out: MIC
[6] = concentration 12.5 μg/mL, BACTEC 12B medium

Compound	% Inhibition [1, 2] [%]	MIC ([1]; table of Example 38) [µg/mL]	inhibition against Mtb H37Rv [1, 6]	other results
CCCc1cc(=O)oc2c3c(c4c(c12)OC(C)(C)CC4)OC(C)C(C)C3=O (racemic) [(±)-Trans-dihydroketone, (±)-10,11-trans-4-Propyl-7,8,10,11-tetrahydro-6,6,10,11-tetramethyl-2 H,6 H,12 H-benzo[1,2-b:3,4-b′:5,6-b″]tripyran-2,12-dione]	43	<12.5	–	–
CCCc1cc(=O)oc2c3c(c4c(c12)OC(C)(C)C=C4)OC(C)C(C)C3=O (racemic) [(±)-Trans-ketone, 10,11-trans-dihydro-4-propyl-6,6,10,11-tetramethyl-2 H,6 H,12 H-benzo[1,2-b:3,4b′:5,6-b″]-tripyran-2,12-dione]	59	<12.5	–	–
CCCc1cc(=O)oc2c3c(c4c(c12)OC(C)(C)C=C4)OC(C)C(C)C3=O (single isomer, unassigned; (-)) [(−)-Trans-ketone]	78	<12.5	–	–
CCCc1cc(=O)oc2c3c(c4c(c12)OC(C)(C)C=C4)O[C@@H](C)[C@H](C)[C@@H]3O [Costatolide, (−)-calanolide B]	–	–	–	inhibition at 12.5 µg/mL [1, 3]: 99%; inhibition at 12.5 µg/mL [1, 4]: 99%; MIC [1, 5]: < 12.5 µg/mL
NC(=O)c1cnccn1 [Pyrazinamide]	–	–	–	MIC (Mtb): 20 µg/mL (≈ 162 µM)
C[C@H]1[C@H](C)Oc2c3c(c4c(-c5ccccc5)cc(=O)oc4c2[C@H]1O)OC(C)(C)C=C3 [Soulattrolide]	–	–	–	inhibition at 12.5 µg/mL [1, 3]: 99%; inhibition at 12.5 µg/mL [1, 4]: 99%; MIC [1, 5]: < 12.5 µg/mL
CO[C@H]1/C=C/O[C@@]2(C)Oc3c(C)c(O)c4c(O)c(c(/C=N/N5CCN(C)CC5)c(O)c4c3C2=O)NC(=O)/C(C)=C\C=C\[C@H](C)[C@H](O)[C@@H](C)[C@@H](O)[C@@H](C)[C@H](OC(C)=O)[C@@H]1C [rifampicin]	–	–	–	MIC (M. tuberculosis H37Rv): 0.06 µg/mL (≈ 0.0729 µM)
(+)-Calanolide A	–	–	98% and 96%	–
(−)-7,8-dihydrosoulattrolide [(−)-7,8-Dihydrosoulatrolide]	99	<12.5	99%	–
(−)-Calanolide A	–	–	98%	–
